Laboratory results published in patent US11873291B2, “Quinoline cGAS antagonist compounds” (ImmuneSensor Therapeutics, Inc., priority 2020, dated 2024).
pIC50: −log10 of the molar value. Read-outs that look alike come from different tables or passages of the source.

Key:
[1] = tested on: cGAS activity in Reporter THP1 cell line; test: Cellular assay to measure cGAS activity: ISRE-Gaussia luciferase reporter THP1 cells transfected with ISD; type: cell-based; settings: Homo sapiens
Method in brief: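 THP1 ISRE-Gaussia luciferase reporter cells (0.3×10^6/well) pre-incubated 5 min with compound serial dilutions, then lipofectamine-transfected with 2 μg/mL ISD (45 bp DNA) or mock. Secreted luciferase read 16 h later with 1 μM coelenterazine at pH 6.5; IC50 from fold increase over mock. Specificity counter-screen used 2 μg/mL poly(I:C) or Sendai virus 50 Unit/mL.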

[2] = biological target: T1, recombinant human cGAS (aa147-522) (Homo sapiens, UniProt Q8N884); test: In vitro inhibition assay of cGAS activity (ATP consumption, KinaseGlo Max); type: biochemical
T1 construct: recombinant human cGAS (aa147-522); His6-SUMO (cleaved yes); made in house; host or cells: E. coli BL21/pLys
Method in brief: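 De-tagged recombinant human cGAS (aa147-522, 1.5 μg/mL) was incubated 20 min at 37 °C with herring testis DNA, 6.6 μM ATP and 0.1 mM GTP in Tris pH 7.5/MgCl2 buffer plus serial compound dilutions. Remaining ATP was read by KinaseGlo Max luminescence, and IC50 was fitted from % ATP consumption versus log concentration.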

[3] = THP-1, Table 4, Gaussia luciferase
[4] = Table 3, read-out: cGAS Inhibition Results IC50
[5] = THP-1, untitled table after Table 4 (continuation)

T1 sequence (Q8N884 147-522): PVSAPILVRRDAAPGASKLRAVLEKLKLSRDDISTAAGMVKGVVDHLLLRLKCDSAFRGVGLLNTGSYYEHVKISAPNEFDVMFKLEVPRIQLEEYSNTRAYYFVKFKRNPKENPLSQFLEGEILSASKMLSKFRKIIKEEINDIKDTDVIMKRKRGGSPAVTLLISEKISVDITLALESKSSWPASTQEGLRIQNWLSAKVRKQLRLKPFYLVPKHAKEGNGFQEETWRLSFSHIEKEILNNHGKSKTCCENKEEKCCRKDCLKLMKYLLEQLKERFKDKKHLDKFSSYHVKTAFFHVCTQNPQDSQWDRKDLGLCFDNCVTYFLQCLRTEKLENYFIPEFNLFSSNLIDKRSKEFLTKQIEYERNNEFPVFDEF

SMILES	pIC50 [1, 3]	pIC50 [2, 4]	pIC50 [1, 5]	pIC50 ([2]; Table 2, read-out: cGAS Inhibition Results IC50)
COC(=O)CC(C)OC[C@@H]1CCCN1c1cc(-n2ccnc2)c2ccc(Cl)c(Cl)c2n1 (stereo partly drawn) [I-718]	> 5.70	4.52 to 5.70		
COC(=O)[C@@H]1C[C@@H](F)CN1c1cc(-n2ccnc2)c2ccc(Cl)c(Cl)c2n1 [I-592]	5.00 to 5.70	4.52 to 5.70		
COC(=O)[C@@H]1CC(C)(C)CN1c1cc(-n2ccnc2)c2ccc(Cl)c(Cl)c2n1 [I-583]	> 5.70	4.52 to 5.70		
COC(=O)[C@@H]1[C@@H](F)CCN1c1cc(-n2ccnc2)c2ccc(Cl)c(Cl)c2n1 [I-649, methyl (2R,3S)-1-(7,8-dichloro-4-(1H-imidazol-1-yl)quinolin-2-yl)-3-fluoropyrrolidine-2-carboxylate]	5.00 to 5.70	4.52 to 5.70		
NS(=O)(=O)CCNc1cc(-n2ccnc2)c2ccc(Cl)c(Cl)c2n1 [I-200]	> 5.70			> 5.70
C[C@H]1C[C@@H](COCCC(=O)O)N(c2cc(-n3ccnc3)c3ccc(Cl)c(Cl)c3n2)C1 [I-708]	> 5.70	> 5.70		
O=C(O)COC[C@@H](O)[C@@H]1CCCN1c1cc(-n2ccnc2)c2ccc(Cl)c(Cl)c2n1 [I-725, 2-((S)-2-((S)-1-(7,8-dichloro-4-(1H-imidazol-1-yl)quinolin-2-yl)pyrrolidin-2-yl)-2-hydroxyethoxy)acetic acid]	< 5.00	> 5.70		
O=C(O)CCOC[C@@H]1[C@@H](O)CCN1c1cc(-n2ccnc2)c2ccc(Cl)c(Cl)c2n1 [I-698]	< 5.00	> 5.70		
O=C(O)CCOCC1COCCN(c2cc(-n3ccnc3)c3ccc(Cl)c(Cl)c3n2)C1 (stereo not drawn) [I-868]		> 5.70	5.00 to 5.70	
C[C@H]1CCN(c2cc(-n3ccnc3)c3ccc(Cl)c(Cl)c3n2)[C@@H]1COCCC(=O)O [I-792]		> 5.70	> 5.70	
CCOC(=O)CNC(=O)C[C@@H]1[C@@H](O)CCN1c1cc(-n2ccnc2)c2ccc(Cl)c(Cl)c2n1 [I-787, ethyl (2-((2R,3S)-1-(7,8-dichloro-4-(1H-imidazol-1-yl)quinolin-2-yl)-3-hydroxypyrrolidin-2-yl)acetyl)glycinate]		> 5.70	5.00 to 5.70	
O=C(O)CCOCCN(c1cc(-n2ccnc2)c2ccc(Cl)c(Cl)c2n1)C1CCCCC1 [I-836]		> 5.70	> 5.70	

The remaining lines, values ahead:

pIC50 [1, 3]	pIC50 [2, 4]	pIC50 [1, 5]	pIC50 ([2]; Table 2, read-out: cGAS Inhibition Results IC50)	SMILES
> 5.70	> 5.70			CO[C@@H]1C[C@@H](COCCC(=O)O)N(c2cc(-n3ccnc3)c3ccc(Cl)c(Cl)c3n2)C1 [I-711]
	> 5.70	5.00 to 5.70		COC(=O)C[C@@H]1[C@@H](O)CCN1c1cc(-n2ccnc2)c2ccc(Cl)c(Cl)c2n1 [I-786, methyl 2-((2R,3S)-1-(7,8-dichloro-4-(1H-imidazol-1-yl)quinolin-2-yl)-3-hydroxypyrrolidin-2-yl)acetate]
> 5.70	> 5.70			COC(=O)[C@@H]1CC2(CC2)CN1c1cc(-n2ccnc2)c2ccc(Cl)c(Cl)c2n1 [I-582]
	> 5.70	< 5.00		O=C(O)CCCCCNc1cc(-c2cn[nH]c2)c2cc(Cl)cc(Cl)c2n1 [I-854]
> 5.70	> 5.70			O=C(O)CCOC[C@@H]1CC2(CC2)CN1c1cc(-n2ccnc2)c2ccc(Cl)c(Cl)c2n1 [I-709]
5.00 to 5.70	> 5.70			O=C(O)c1cccc(OC[C@@H]2CCCN2c2cc(-n3ccnc3)c3ccc(Cl)c(Cl)c3n2)c1 [I-735, (S)-3-((1-(7,8-dichloro-4-(1H-imidazol-1-yl)quinolin-2-yl)pyrrolidin-2-yl)methoxy)benzoic acid]
